# Data as given in patent US9861616B2, “Methods for treating respiratory diseases and formulations therefor” (priority 2013, dated 2018).
# Read-outs that look alike come from different tables or passages of the source.
# Columns and labels:
# P. aeruginosa PAO1 = assay: MIC by microdilution with PaβN or EGTA, wild-type strain; assay type: cell-based
# Description: (§1) MICs of 36 clinical and laboratory strains of PA with known efflux phenotype are measured by microdilution in cation-adjusted Muller-Hinton broth (CA-MHB) or in RPMI medium (commonly used in eukaryotic cell culture). Phe-Arg-β-naphthylamide (PaβN, 50 mg/L) and EGTA 5 mM are used to inhibit efflux pumps and alter OM integrity, respectively. P. aeruginosa strain ATCC PAO1 is used as reference. PA12 is a clinical strain overexpressing the 4 main efflux systems (MexAB, MexCD, MexEF, MexXY), PA403 is a laboratory strain deleted in the genes coding for the 4 efflux systems. A series of reference strains or of clinical isolates for which the expression of genes coding for efflux pumps is known is also used for MICs determinations. MICs are measured by microdilution in MH broth or in RPMI medium (used for eukaryotic cells culture) supplemented with 10% of fetal calf serum, or in MH broth supplemented by increasing amounts of serum. EGTA (5 mM) was used as a chelating agent (disrupting outer membrane integrity) and PaβN (50 mg/L) as an unspecific efflux inhibitor.
# [1] = system: MRSA strains from CF patients; assay: Microdilution MICs against 40 MRSA strains from CF patients; assay type: cell-based, S. aureus; settings: for MIC50 / MIC90: 40 MRSA strains from CF patients
# Description: Two strains each of mucoid P. aeruginosa (both pyocyanin positive) and […] MRSA (only one strain with gold colonies) isolated from patients at a CF clinic were tested. Additionally, 2 B. cepacia strains were acquired, from Hershey Medical Center. All strains were identified by standard methods. Only one strain per patient was tested. MLVA was done on all strains to examine clonality, and confirmed that examination is not taking place on only one or a few clones. Strains will be stored in skim milk at −70° C. until use.
# Original MICs of each strain to CEM-101 and other comparators were tested by CLSI microdilution methodology. Trays were obtained from Trek, Inc., Cleveland, Ohio. Time-kill macrobroth MIC dilution by CLSI was performed for all synergy testing.
# MMP9 activity = assay: PMA-induced MMP9 activation in U937 cells (gelatin zymography); assay type: cell-based, human
# Description: Effects of macrolides on phorbol 12-myristate 13-acetate (PMA)-induced MMP9 activation in U937 cells. […] After 48 h supernatants were collected for zymography. MMP9 enzyme activity was measured by gelatin zymography. Data are expressed relative to standard.
# The human monocytic cell line U937 was obtained from the American Type Culture Collection (ATCC, Rockville, Md.). PBMCs from COPD patients were obtained from Brompton hospital and separated by AccuSPIN (Sigma-Aldrich). Cells were cultured in complete growth medium (RPMI 1640) (Sigma-Aldrich) supplemented with 10% fetal bovine serum (FBS) and 1% L-glutamine at 37° C. in a humidified atmosphere with 5% CO2. U937 cells were differentiated into adherent macrophage-like morphology by exposure to PMA (50 ng/mL) for 48 hrs in complete growth medium. Cell viability was assessed microscopically by trypan blue staining. Cell toxicity was determined by MTT assay as needed. This study was approved by the ethics committee of the Royal Brompton Hospitals, and all subjects gave written informed consent.
# MMP9 enzyme activity was measured by gelatin zymography. Cell culture supernatants were diluted with equal amount of Laemli sample buffer (Bio-Rad, Hertfordshire, UK) and loaded on a Novex® 10% Zymogram (Gelatin) gel (Invitrogen Ltd, Paisley, UK). After electrophoresis, gels were incubated and rinsed with Novex® zymogram renaturing buffer (Invitrogen) for 30 min at room temperature. The gels were then rinsed in Novex® zymogram developing buffer (Invitrogen) for 30 min at room temperature prior to overnight incubation in the developing buffer at 37° C. After incubation, the gels were stained using a Colloidal Blue Staining Kit (Invitrogen) to visualize the zymogen bands.
# The results were expressed as the mean±SEM. Comparisons of data in two groups were performed using the Student's t test or the Wilcoxon signed rank test. Multiple comparisons were made by one-way ANOVA with post hoc test (Dunnett's) as appropriate. The difference was considered significant at p<0.05. IC50 values (50% inhibitory concentration) for macrolides for production of cytokines or MMP9 were calculated using Prism 4.0 (GraphPad Software Inc., San Diego, Calif.).
# P. aeruginosa PA403 = assay: MIC by microdilution with PaβN or EGTA, efflux-deleted laboratory strain; assay type: cell-based
# Description: as §1, with “The compounds described herein are poor substrates of efflux pumps expressed in P. aeruginosa (PA). MICs of” for “MICs of”
# Protein binding = assay type: in vitro ADME; settings: mice
# Source text: A 3-compartment model with a parallel first-order and capacity-limited clearance and a capacity-limited first pass effect with fitted lag-times best described the plasma and ELF data (r2=0.98 and 0.83 for observed vs fitted concentrations, respectively). ELF to total- and free-drug (f) plasma (based on protein binding of 91.8% in mice) AUC0-24 ratios were 0.22 and 2.7, respectively. ELF and f plasma AUC0-24:MIC ratios were most predictive of efficacy (r2=0.85 for ELF and f plasma). […] AUC0-24:MIC ratio was the PK-PD index most predictive of efficacy for CEM-101. PK-PD targets based on these relationships will inform dose selection for future clinical studies.
# [2] = Pseudomonas aeruginosa, PAO1, PAO1, CA-MHB, EGTA 5 mM, read-out: MIC
# [3] = Pseudomonas aeruginosa, PAO1, PAO1, CA-MHB, PaβN 50 mg/L, read-out: MIC
# [4] = Pseudomonas aeruginosa, PAO1, PAO1, CA-MHB, control conditions (CT)
# [5] = Pseudomonas aeruginosa, PAO1, PAO1, RPMI, EGTA 5 mM, read-out: MIC
# [6] = Pseudomonas aeruginosa, PAO1, PAO1, RPMI, PaβN 50 mg/L, read-out: MIC
# [7] = Pseudomonas aeruginosa, PAO1, PAO1, RPMI, control conditions (CT), read-out: MIC
# [8] = Staphylococcus aureus, read-out: MIC50
# [9] = Staphylococcus aureus, read-out: MIC90
# [10] = Homo sapiens, U-937, read-out: IC50, PMA-induced MMP9 activation
# [11] = Pseudomonas aeruginosa, PA403, P403, CA-MHB, EGTA 5 mM, read-out: MIC
# [12] = Pseudomonas aeruginosa, PA403, P403, CA-MHB, control conditions (CT), read-out: MIC
# [13] = Pseudomonas aeruginosa, PA403, P403, RPMI, EGTA 5 mM, read-out: MIC
# [14] = Pseudomonas aeruginosa, PA403, P403, RPMI, PaβN 50 mg/L, read-out: MIC
# [15] = Pseudomonas aeruginosa, PA403, P403, RPMI, control conditions (CT), read-out: MIC
SMILES,MIC (P. aeruginosa PAO1; [2]),MIC (P. aeruginosa PAO1; [3]),MIC (P. aeruginosa PAO1; [4]),MIC (P. aeruginosa PAO1; [5]),MIC (P. aeruginosa PAO1; [6]),MIC (P. aeruginosa PAO1; [7]),"MIC50 [1, 8]","MIC90 [1, 9]","inhibitory effect on MMP9 activity, lower than CEM-101 (MMP9 activity)",IC50 (MMP9 activity; [10]),MIC (P. aeruginosa PA403; [11]),MIC (P. aeruginosa PA403; [12]),MIC (P. aeruginosa PA403; [13]),MIC (P. aeruginosa PA403; [14]),MIC (P. aeruginosa PA403; [15]),other results
"CC[C@H]1OC(=O)[C@H](C)[C@@H](O[C@H]2C[C@@](C)(OC)[C@@H](O)[C@H](C)O2)[C@H](C)[C@@H](O[C@@H]2O[C@H](C)C[C@H](N(C)C)[C@H]2O)[C@](C)(O)C[C@@H](C)CN(C)[C@H](C)[C@@H](O)[C@]1(C)O [AZM, azithromycin]",8 µg/mL,4 µg/mL,128 µg/mL,0.25 µg/mL,4 µg/mL,2 µg/mL,≥ 32 µg/mL,≥ 32 µg/mL,10 fold,212 µM,,,,,,
"CC[C@H]1OC(=O)[C@@](C)(F)C(=O)[C@H](C)[C@@H](O[C@@H]2O[C@H](C)C[C@H](N(C)C)[C@H]2O)[C@](C)(OC)C[C@@H](C)C(=O)[C@H](C)[C@H]2N(CCCCn3cc(-c4cccc(N)c4)nn3)C(=O)O[C@]12C [CEM-101, solithromycin]",,,,,,,,,,,,,,,,"MIC (P. aeruginosa PAO1; PAO1, CA-MHB, EGTA 5 mM): 8 µg/mL; MIC (P. aeruginosa PAO1; PAO1, CA-MHB, PaβN 50 mg/L): 8 µg/mL; MIC (P. aeruginosa PAO1; PAO1, CA-MHB, control conditions (CT)): 32 µg/mL; MIC (P. aeruginosa PAO1; PAO1, RPMI, EGTA 5 mM): 1 µg/mL; MIC (P. aeruginosa PAO1; PAO1, RPMI, PaβN 50 mg/L): 2 µg/mL; MIC (P. aeruginosa PAO1; PAO1, RPMI, control conditions (CT)): 2 µg/mL; MIC (P. aeruginosa PA403; P403, CA-MHB, EGTA 5 mM): 1 µg/mL; MIC (P. aeruginosa PA403; P403, CA-MHB, control conditions (CT)): 4 µg/mL; MIC (P. aeruginosa PA403; P403, RPMI, EGTA 5 mM): 0.25 µg/mL; MIC (P. aeruginosa PA403; P403, RPMI, PaβN 50 mg/L): 2 µg/mL; MIC (P. aeruginosa PA403; P403, RPMI, control conditions (CT)): 1 µg/mL; MICs against the strains it was active against ([1]; 21 of the 40 MRSA strains): 0.06 to 0.25 µg/mL; share of strains against which active ([1]; 21 of the 40 MRSA strains, MICs 0.06-0.25): 52.5%; MIC50 [1]: 0.25 µg/mL; MIC90 [1]: ≧16 μg/mL; MICs against the remaining organisms ([1]; remaining 19 of 40 MRSA strains): ≥ 16 µg/mL; IC50 (MMP9 activity; read-out: IC50, PMA-induced MMP9 activation): 14.9 ± 3.1 µM; protein binding (Protein binding): 91.8%"
"CC[C@H]1OC(=O)[C@H](C)[C@@H](O[C@H]2C[C@@](C)(OC)[C@@H](O)[C@H](C)O2)[C@H](C)[C@@H](O[C@@H]2O[C@H](C)C[C@H](N(C)C)[C@H]2O)[C@](C)(OC)C[C@@H](C)C(=O)[C@H](C)[C@@H](O)[C@]1(C)O [CLR, clarithromycin]",,8 µg/mL,512 µg/mL,32 µg/mL,4 µg/mL,32 µg/mL,≥ 32 µg/mL,≥ 32 µg/mL,10 fold,118 µM,32 µg/mL,16 µg/mL,0.5 µg/mL,4 µg/mL,4 µg/mL,
"CC[C@H]1OC(=O)[C@H](C)[C@@H](O[C@H]2C[C@@](C)(OC)[C@@H](O)[C@H](C)O2)[C@H](C)[C@@H](O[C@@H]2O[C@H](C)C[C@H](N(C)C)[C@H]2O)[C@](C)(O)C[C@@H](C)C(=O)[C@H](C)[C@@H](O)[C@]1(C)O [ERY, erythromycin]",,16 µg/mL,512 µg/mL,32 µg/mL,32 µg/mL,32 µg/mL,,,,,16 µg/mL,16 µg/mL,0.5 µg/mL,4 µg/mL,4 µg/mL,"effect on MMP9 activity (MMP9 activity): no effect; IC50 (MMP9 activity; Homo sapiens, U-937, at 333 μM, read-out: IC50, PMA-induced MMP9 activation: NE at 333 μM): > 333 µM"
"CC[C@H]1OC(=O)[C@H](C)C(=O)[C@H](C)[C@@H](O[C@@H]2O[C@H](C)C[C@H](N(C)C)[C@H]2O)[C@](C)(OC)C[C@@H](C)C(=O)[C@H](C)[C@H]2N(CCCCn3cnc(-c4cccnc4)c3)C(=O)O[C@]12C [TEL, telithromycin]",32 µg/mL,4 µg/mL,128 µg/mL,1 µg/mL,4 µg/mL,2 µg/mL,,,,,2 µg/mL,4 µg/mL,0.06 µg/mL,1 µg/mL,0.5 µg/mL,
